From patent US20150307460A1, “Substituted Triazoles and Imidazoles and Their Use as Fungicides” (BASF SE, priority 2012, published 2015) come the findings set out here.

Test [1] has as its system Phytophthora infestans. Format: cell-based. To be noted: 7 days after inoculation, control = 100%.
Test [2] has as its system Septoria tritici. Briefly: Microtest: activity against leaf blotch on wheat caused by Septoria tritici (Septtr), also comparison test CM3. Format: cell-based. To be noted: 7 days after inoculation, control = 100%.
The test system of test [3] is Botrytis cinerea. Briefly: Microtiterplate test: activity against the grey mold Botrytis cinerea (Botrci), also comparison test CM1. The conditions noted are these: 7 days after inoculation, control = 100%. Format: cell-based.
In test [4] the test system is Puccinia recondita. The experiment in a line: Green house CG1: preventative control of brown rust on wheat caused by Puccinia recondita (Puccrt P1). In kind it is in vivo. To be noted: 150 ppm spray, wheat seedlings, % diseased leaf area, untreated control 90. How it is done:
The spray solutions were prepared in several steps: The stock solution were prepared: a mixture of acetone and/or dimethylsulfoxide and the wetting agent/emulsifier Wettol, which is based on ethoxylated alkylphenoles, in a relation (volume) solvent-emulsifier of 99 to 1 was added to 25 mg of the compound to give a total of 5 ml. Water was then added to total volume of 100 ml. This stock solution was diluted with the described solvent-emulsifier-water mixture to the given concentration. CG1 Preventative Control of Brown Rust on Wheat Caused by Puccinia recondita (Puccrt P1) The first two developed leaves of pot-grown wheat seedling were sprayed to run-off with an aqueous suspension, containing the concentration of active ingredient or their mixture as described below. The next day the plants were inoculated with spores of Puccinia recondita. […] The extent of fungal attack on the leaves was visually assessed as % diseased leaf area.

Turning to `OC1(c2ccccc2)CCCCC1n1cncn1` (stereo not drawn) [Example No. 25 of EP 0 152 031, reference compound], the “CM2 Growth (%) at 31 ppm Phytin” value in test [1] is 94%. Also, the “CM3 Growth (%) at 8 ppm Septtr” value in test [2] is given as 80%. Moreover, in test [3], the “CM1 Growth (%) at 8 ppm Botrci” value stood at 70%.

As to `OC1(c2ccc(Cl)cc2)CCCCCC1n1cncn1` (stereo not drawn) [reference compound], in test [4], the “CG1 Disease (%) at 150 ppm Puccrt P1” value is given as 30%.

In the case of `OC1(c2ccc(-c3ccccc3)cc2)CCCCC1n1cncn1` (stereo not drawn) [Compound I-12], the “CM2 Growth (%) at 31 ppm Phytin” value in test [1] was found to be 41%. Moreover, the “CM3 Growth (%) at 8 ppm Septtr” value in test [2] was 1%. In test [3], the “CM1 Growth (%) at 8 ppm Botrci” value was 0%.

Consider `OC1(c2ccc(F)cc2)CCCCC1n1cncn1` (stereo not drawn) [Example No. 28 of EP 0 152 031, reference compound], for which the “CM2 Growth (%) at 31 ppm Phytin” value in test [1] was determined as 93%. The “CM3 Growth (%) at 8 ppm Septtr” value in test [2] turned out to be 83%. In addition, in test [3], the “CM1 Growth (%) at 8 ppm Botrci” value stood at 40%.

Take `OC1(c2ccc(Oc3ccc(Cl)cc3)cc2)CCCCC1n1cncn1` (stereo not drawn) [Compound I-11, 1-[4-(4-chlorophenoxyl)phenyl]-2-(1,2,4-triazol-1-yl)cyclohexanol]: the “CM2 Growth (%) at 31 ppm Phytin” value in test [1] turned out to be 57%. The “CM3 Growth (%) at 8 ppm Septtr” value in test [2] was determined as 0%. For the same compound, the “CM1 Growth (%) at 8 ppm Botrci” value in test [3] came to 0%.

On to `OC1(c2ccc(-c3ccc(Cl)cc3)cc2)CCCCC1n1cncn1` (stereo not drawn) [Compound I-15], for which, in test [2], the “CM3 Growth (%) at 8 ppm Septtr” value is recorded as 2%. For the same compound, in test [3], the “CM1 Growth (%) at 8 ppm Botrci” value was 0%.

Regarding `OC1(c2ccc(Cl)cc2)CCCCC1n1cncn1` (stereo not drawn) [reference compound], the “CM2 Growth (%) at 31 ppm Phytin” value in test [1] was 78%. The “CM3 Growth (%) at 8 ppm Septtr” value in test [2] came to 52%.

For `OC1(c2cccc(-c3ccc(Cl)cc3)c2)CCCCC1n1cncn1` (stereo not drawn) [Compound I-19], the “CM2 Growth (%) at 31 ppm Phytin” value in test [1] is given as 73%. Further, in test [2], the “CM3 Growth (%) at 8 ppm Septtr” value was 1%. The “CM1 Growth (%) at 8 ppm Botrci” value in test [3] is recorded as 0%.

`OC1(c2ccc(-c3ccc(F)cc3)cc2)CCCCCC1n1cncn1` (stereo not drawn): the “CG1 Disease (%) at 150 ppm Puccrt P1” value in test [4] is 10%.
